In ChEMBL document CHEMBL1201862, “PubChem BioAssay data set” (2004):
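In this assay, cells in 96-well plates receive the compound at five concentrations for 48 hours. Endpoints are linearly interpolated between the surrounding concentrations. Here, GI50 denotes the concentration required for 50% inhibition of growth.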 Active and inactive are the calls of the source. No stated cut-off is given here; in the data, active = GI50 up to about 1.1 µM and inactive = higher. Square brackets hold non-standard residues; d marks the D form. Peptide text beside a SMILES is read from it. * marks the point of attachment. ξ: configuration not given here. ξD = NC(CC(=O)O)C(=O)O; Ac3c = NC1(C(=O)O)CC1; Boc = CC(C)(C)OC(=O)*; OtBu = CC(C)(C)O*

Assays:
Assay in all cases: growth of human tumour cells (NCI), 48 h
OVCAR-4 = test system: OVCAR-4
HCT-116 = test system: HCT-116
DU-145 = test system: DU-145
NCI-H460 = test system: NCI-H460
Hs-578T = test system: Hs-578T
EKVX = test system: EKVX
SW-620 = test system: SW-620
RXF 393 = test system: RXF 393
MDA-N = test system: MDA-N
MCF7 = test system: MCF7
T47D = test system: T47D
OVCAR-8 = test system: OVCAR-8
NCI-H23 = test system: NCI-H23
SR = test system: SR
NCI-H522 = test system: NCI-H522
TK-10 = test system: TK-10
SF-295 = test system: SF-295
MDA-MB-231 = test system: MDA-MB-231
SK-OV-3 = test system: SK-OV-3
RPMI-8226 = test system: RPMI-8226

Measured: GI50

Nc1ccnc2c1ncn2[C@H]1C[C@H](O)[C@@H](CO)O1
inactive: OVCAR-4 > 100 µM | HCT-116 > 100 µM | DU-145 > 100 µM | NCI-H460 > 100 µM | Hs-578T > 100 µM | EKVX > 100 µM | SW-620 > 100 µM | RXF 393 > 100 µM | MDA-N > 100 µM | MCF7 > 100 µM | T47D > 100 µM | OVCAR-8 > 100 µM | NCI-H23 > 100 µM | SR > 100 µM | NCI-H522 > 100 µM | TK-10 > 100 µM | SF-295 > 100 µM | MDA-MB-231 > 100 µM

COC(=O)Nc1nc2cc(NS(=O)(=O)c3ccc(Cl)cc3)ccc2[nH]1
inactive: OVCAR-4 13 µM | HCT-116 2.45 µM | SK-OV-3 12.2 µM | DU-145 20.4 µM | NCI-H460 5.98 µM | Hs-578T 1.99 µM | EKVX 5.78 µM | SW-620 5.11 µM | RXF 393 7.23 µM | MDA-N 2.18 µM | MCF7 4.08 µM | T47D 19.1 µM | OVCAR-8 13 µM | NCI-H23 9.93 µM | NCI-H522 3.4 µM | TK-10 2.7 µM | SF-295 4.45 µM | MDA-MB-231 8.34 µM | RPMI-8226 6.75 µM

CC(=O)N(C(C)=O)n1nc2c(n1)C(=O)c1ccccc1C2=O
inactive: OVCAR-4 > 100 µM | HCT-116 > 100 µM | SK-OV-3 > 100 µM | DU-145 > 100 µM | NCI-H460 > 100 µM | Hs-578T > 100 µM | EKVX > 100 µM | SW-620 > 100 µM | RXF 393 > 100 µM | MDA-N > 100 µM | MCF7 > 100 µM | T47D > 100 µM | OVCAR-8 > 100 µM | NCI-H23 > 100 µM | NCI-H522 > 100 µM | TK-10 > 100 µM | SF-295 > 100 µM | MDA-MB-231 > 100 µM | RPMI-8226 > 100 µM

COC(=O)C1(NC(=O)C(CC(=O)OC(C)(C)C)NC(=O)OC(C)(C)C)CC1 (stereo not given) (Boc-[ξD](OtBu)-[Ac3c]-OMe)
inactive: OVCAR-4 > 100 µM | HCT-116 > 100 µM | SK-OV-3 7.87 µM | DU-145 > 100 µM | NCI-H460 > 100 µM | Hs-578T > 100 µM | EKVX > 100 µM | SW-620 > 100 µM | RXF 393 > 100 µM | MDA-N > 100 µM | MCF7 > 100 µM | T47D > 100 µM | OVCAR-8 > 100 µM | NCI-H23 > 100 µM | NCI-H522 > 100 µM | TK-10 > 100 µM | SF-295 > 100 µM | MDA-MB-231 > 100 µM | RPMI-8226 > 100 µM

CC[C@H](NC(=O)OC(C)(C)C)C(=O)NCP(=O)(OCc1ccc([N+](=O)[O-])cc1)OCc1ccc([N+](=O)[O-])cc1
inactive: OVCAR-4 25.1 µM | HCT-116 27.7 µM | SK-OV-3 21.9 µM | DU-145 31.6 µM | NCI-H460 27.8 µM | Hs-578T 37.2 µM | SW-620 40.6 µM | MDA-N 28.6 µM | MCF7 48.9 µM | T47D 63 µM | OVCAR-8 30.5 µM | NCI-H23 41.3 µM | SR 26.9 µM | NCI-H522 31.6 µM | TK-10 30.6 µM | SF-295 13.7 µM | MDA-MB-231 26.4 µM | RPMI-8226 27.7 µM

c1ccc(/N=C2\c3ccccc3CN2c2ccccn2)nc1
inactive: OVCAR-4 > 100 µM | HCT-116 74.3 µM | SK-OV-3 > 100 µM | DU-145 > 100 µM | NCI-H460 89.3 µM | Hs-578T > 100 µM | EKVX > 100 µM | SW-620 > 100 µM | RXF 393 > 100 µM | MDA-N > 100 µM | MCF7 49.9 µM | T47D 17.5 µM | OVCAR-8 > 100 µM | NCI-H23 71.9 µM | NCI-H522 61.7 µM | TK-10 > 100 µM | SF-295 > 100 µM | MDA-MB-231 > 100 µM | RPMI-8226 78 µM

NC(=O)NNCc1ccccc1
inactive: OVCAR-4 > 100 µM | HCT-116 > 100 µM | SK-OV-3 > 100 µM | DU-145 > 100 µM | NCI-H460 > 100 µM | Hs-578T > 100 µM | EKVX > 100 µM | SW-620 > 100 µM | RXF 393 > 100 µM | MDA-N > 100 µM | MCF7 > 100 µM | T47D > 100 µM | OVCAR-8 > 100 µM | NCI-H23 > 100 µM | NCI-H522 > 100 µM | TK-10 > 100 µM | SF-295 > 100 µM | MDA-MB-231 > 100 µM | RPMI-8226 > 100 µM

NC1CCCCC1.O=P(O)(O)C(O)/C=C/c1ccccc1 (stereo not given)
inactive: OVCAR-4 > 100 µM | HCT-116 > 100 µM | SK-OV-3 > 100 µM | DU-145 > 100 µM | NCI-H460 > 100 µM | Hs-578T > 100 µM | EKVX > 100 µM | SW-620 > 100 µM | RXF 393 > 100 µM | MDA-N > 100 µM | MCF7 > 100 µM | T47D > 100 µM | OVCAR-8 > 100 µM | NCI-H23 > 100 µM | NCI-H522 > 100 µM | TK-10 > 100 µM | SF-295 > 100 µM | MDA-MB-231 > 100 µM | RPMI-8226 > 100 µM
